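Values below derive from 48-hour exposures of cells grown in 96-well plates, with endpoints linearly interpolated between the two concentrations bracketing the appropriate inhibition level. GI50 marks 50% less growth.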 Active and inactive are the calls of the source. Rule as the data show it: active = GI50 up to about 1.1 µM and inactive = higher.
Columns and labels:
Assay in all cases: inhibition of tumour cell growth, NCI panel, 48 h
[1] = system: SNB-75
[2] = system: CCRF-CEM
[3] = system: CAKI-1
[4] = system: NCI-H23
[5] = system: EKVX
[6] = system: UACC-62
[7] = system: SK-MEL-5
[8] = system: HL-60
[9] = system: UACC-257
[10] = system: OVCAR-8
[11] = system: A498
[12] = system: MCF7
[13] = system: Hs-578T
[14] = system: MDA-MB-231
[15] = system: SF-295
[16] = system: U-251
[17] = system: M14
[18] = system: RPMI-8226
[19] = system: UO-31
[20] = system: SF-539
[21] = system: NCI/ADR-RES
[22] = system: SF-268
[23] = system: SK-OV-3
[24] = system: SK-MEL-2
[25] = system: K562
[26] = system: HT-29
[27] = system: RXF 393
[28] = system: T47D
[29] = system: 786-0
[30] = system: SNB-19
[31] = system: HCC 2998
[32] = system: Malme-3M
[33] = system: NCI-H460
[34] = system: TK-10
[35] = system: HOP-92
[36] = system: NCI-H522
[37] = system: OVCAR-4
[38] = system: DU-145
[39] = system: HCT-116
[40] = system: SR
[41] = system: HCT-15
[42] = system: SK-MEL-28
[43] = system: BT-549
[44] = system: LOX IMVI
[45] = system: SN12C
[46] = system: OVCAR-5
[47] = system: HOP-62
[48] = system: SW-620
[49] = system: IGROV-1
[50] = system: OVCAR-3
[51] = system: MOLT-4
[52] = system: MDA-MB-435
[53] = system: ACHN
[54] = system: KM12
[55] = system: MDA-N
[56] = system: COLO 205
[57] = system: NCI-H226
[58] = system: A549
[59] = system: PC-3

## O=C1CSC(c2cccs2)N1c1nc2cc3sc(N4C(=O)CSC4c4cccs4)nc3cc2s1 (configuration not stated)
[1]
  GI50: > 50 µM (inactive)
[2]
  GI50: 25.2 µM (inactive)
[3]
  GI50: 47.4 µM (inactive)
[4]
  GI50: 28.8 µM (inactive)
[5]
  GI50: 16 µM (inactive)
[6]
  GI50: > 50 µM (inactive)
[7]
  GI50: 22.5 µM (inactive)
[8]
  GI50: > 50 µM (inactive)
[9]
  GI50: > 50 µM (inactive)
[10]
  GI50: > 50 µM (inactive)
[11]
  GI50: > 50 µM (inactive)
[12]
  GI50: 15.9 µM (inactive)
[13]
  GI50: > 50 µM (inactive)
[14]
  GI50: > 50 µM (inactive)
[15]
  GI50: > 50 µM (inactive)
[16]
  GI50: 40.9 µM (inactive)
[17]
  GI50: > 50 µM (inactive)
[18]
  GI50: > 50 µM (inactive)
[19]
  GI50: 30.9 µM (inactive)
[20]
  GI50: 0.753 µM (active)
[21]
  GI50: 43.1 µM (inactive)
[22]
  GI50: > 50 µM (inactive)
[23]
  GI50: > 50 µM (inactive)
[24]
  GI50: > 50 µM (inactive)
[25]
  GI50: 34.5 µM (inactive)
[26]
  GI50: 11.9 µM (inactive)
[27]
  GI50: > 50 µM (inactive)
[28]
  GI50: > 50 µM (inactive)
[29]
  GI50: > 50 µM (inactive)
[30]
  GI50: > 50 µM (inactive)
[31]
  GI50: > 50 µM (inactive)
[32]
  GI50: > 50 µM (inactive)
[33]
  GI50: 3.04 µM (inactive)
[34]
  GI50: > 50 µM (inactive)
[35]
  GI50: > 50 µM (inactive)
[36]
  GI50: 13.2 µM (inactive)
[37]
  GI50: > 50 µM (inactive)
[38]
  GI50: > 50 µM (inactive)
[39]
  GI50: 38.4 µM (inactive)
[40]
  GI50: 5.45 µM (inactive)
[41]
  GI50: 33.4 µM
[42]
  GI50: > 50 µM (inactive)
[43]
  GI50: > 50 µM (inactive)
[44]
  GI50: 29.5 µM (inactive)
[45]
  GI50: 26.4 µM (inactive)
[46]
  GI50: > 50 µM (inactive)
[47]
  GI50: > 50 µM (inactive)
[48]
  GI50: 16.2 µM (inactive)
[49]
  GI50: 32.3 µM (inactive)
[50]
  GI50: > 50 µM (inactive)
[51]
  GI50: 6.4 µM (inactive)
[52]
  GI50: > 50 µM (inactive)
[53]
  GI50: > 50 µM (inactive)
[54]
  GI50: > 50 µM (inactive)
[55]
  GI50: > 50 µM (inactive)
[56]
  GI50: 1.21 µM (inactive)
[57]
  GI50: 6.38 µM (inactive)
[58]
  GI50: 4.23 µM (inactive)
[59]
  GI50: 47.9 µM (inactive)

## Cc1ccc([N+](=O)[O-])cc1S(=O)(=O)Nc1ccc(C2=NOC(c3ccccc3O)C2)cc1 (configuration not stated)
[1]
  GI50: 3.6 µM (inactive)
[2]
  GI50: 8.93 µM (inactive)
[3]
  GI50: 9.42 µM (inactive)
[4]
  GI50: 10.4 µM (inactive)
[5]
  GI50: 17.1 µM (inactive)
[6]
  GI50: 2.97 µM (inactive)
[7]
  GI50: 4.68 µM (inactive)
[8]
  GI50: 2.17 µM (inactive)
[9]
  GI50: 5.97 µM (inactive)
[10]
  GI50: 31.2 µM (inactive)
[11]
  GI50: 2.84 µM (inactive)
[12]
  GI50: 3.33 µM (inactive)
[13]
  GI50: 9.98 µM (inactive)
[14]
  GI50: 4.5 µM (inactive)
[15]
  GI50: 3.85 µM (inactive)
[17]
  GI50: 2.19 µM (inactive)
[18]
  GI50: 4.26 µM (inactive)
[19]
  GI50: < 0.01 µM (active)
[20]
  GI50: 4.58 µM (inactive)
[21]
  GI50: 2.54 µM (inactive)
[22]
  GI50: 8.61 µM (inactive)
[23]
  GI50: 15.3 µM (inactive)
[24]
  GI50: 2.74 µM (inactive)
[25]
  GI50: 2.25 µM (inactive)
[26]
  GI50: 4.61 µM (inactive)
[27]
  GI50: 2.26 µM (inactive)
[28]
  GI50: 6 µM (inactive)
[29]
  GI50: 8.65 µM (inactive)
[30]
  GI50: 3.31 µM (inactive)
[31]
  GI50: 7.01 µM (inactive)
[32]
  GI50: 3.95 µM (inactive)
[33]
  GI50: 4.09 µM (inactive)
[34]
  GI50: 18.3 µM (inactive)
[35]
  GI50: 26.2 µM (inactive)
[36]
  GI50: 1.29 µM (inactive)
[37]
  GI50: 3 µM (inactive)
[38]
  GI50: 13.3 µM (inactive)
[39]
  GI50: 4.54 µM (inactive)
[40]
  GI50: 0.577 µM (active)
[41]
  GI50: 3.44 µM
[42]
  GI50: 12.8 µM (inactive)
[43]
  GI50: 6.27 µM (inactive)
[44]
  GI50: 9.95 µM (inactive)
[45]
  GI50: 12.3 µM (inactive)
[46]
  GI50: 33.4 µM (inactive)
[47]
  GI50: 5.12 µM (inactive)
[48]
  GI50: 4.18 µM (inactive)
[49]
  GI50: 7.43 µM (inactive)
[50]
  GI50: 3.72 µM (inactive)
[51]
  GI50: 2.76 µM (inactive)
[52]
  GI50: 1.01 µM (active)
[53]
  GI50: 13.1 µM (inactive)
[54]
  GI50: 3.16 µM (inactive)
[55]
  GI50: 1.56 µM (inactive)
[56]
  GI50: 3.54 µM (inactive)
[57]
  GI50: 5.82 µM (inactive)
[58]
  GI50: 4.97 µM (inactive)
[59]
  GI50: 4.74 µM (inactive)
